Active and inactive are the calls of the source. The calls are words filed in the database; no cut-off is given here.
Experiments:
[1] = molecular target: T1, Tyrosinase (Agaricus bisporus) (UniProt O42713); assay: Inhibition of mushroom tyrosinase at 1 uM
T1 sequence (whole entry): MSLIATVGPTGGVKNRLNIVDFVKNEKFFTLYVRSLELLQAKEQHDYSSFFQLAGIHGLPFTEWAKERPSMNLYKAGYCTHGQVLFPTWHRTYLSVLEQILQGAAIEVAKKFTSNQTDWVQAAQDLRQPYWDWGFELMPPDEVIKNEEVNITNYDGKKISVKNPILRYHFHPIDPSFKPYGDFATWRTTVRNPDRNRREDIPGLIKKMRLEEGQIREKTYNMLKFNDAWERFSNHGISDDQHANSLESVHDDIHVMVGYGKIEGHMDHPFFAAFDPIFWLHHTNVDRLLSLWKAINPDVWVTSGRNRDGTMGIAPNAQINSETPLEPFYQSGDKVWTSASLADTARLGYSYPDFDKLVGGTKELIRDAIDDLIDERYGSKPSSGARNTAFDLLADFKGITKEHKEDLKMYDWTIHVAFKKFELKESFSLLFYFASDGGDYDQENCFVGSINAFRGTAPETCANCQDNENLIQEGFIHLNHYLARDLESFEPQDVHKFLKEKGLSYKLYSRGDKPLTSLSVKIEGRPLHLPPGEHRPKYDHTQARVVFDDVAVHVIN

[2] = molecular target: T1, Tyrosinase (Agaricus bisporus); assay: Inhibition of mushroom tyrosinase at 3 uM
[3] = system: B16-4A5; assay: Inhibition of tyrosinase mRNA expression in theophylline-stimulated mouse B16-4A5 cells at 1 to 30 uM after 72 hrs; assay type: functional, cell-based
[4] = system: B16-4A5; assay: Inhibition of TRP1 mRNA expression in theophylline-stimulated mouse B16-4A5 cells at 1 to 30 uM after 72 hrs; assay type: functional, cell-based
[5] = system: B16-4A5; assay: Inhibition of TRP2 mRNA expression in theophylline-stimulated mouse B16-4A5 cells at 1 to 30 uM after 72 hrs; assay type: functional, cell-based
[6] = system: B16-4A5; assay: Inhibition of microphthalmia-associated transcriptional factor level in theophylline-stimulated mouse B16-4A5 cells at 1 to 30 uM after 24 hrs; assay type: functional, cell-based
[7] = system: B16-4A5; assay: Inhibition of microphthalmia-associated transcriptional factor level in theophylline-stimulated mouse B16-4A5 cells at 1 to 30 uM after 48 hrs; assay type: functional, cell-based
[8] = molecular target: T2, Tyrosinase (Agaricus bisporus, UniProt O42713)
T2 sequence (O42713 whole entry): T1 sequence (whole entry)

[9] = cells; conditions: Mus musculus, B16-4A5, 72 h, read-out: INH
Description: Inhibition of melanogenesis in theophylline-stimulated mouse B16-4A5 cells at 1 uM after 72 hrs

[10] = cells; conditions: Mus musculus, B16-4A5, 72 h, read-out: INH; remark: listed apart in the source
Description: Inhibition of melanogenesis in theophylline-stimulated mouse B16-4A5 cells at 3 uM after 72 hrs

[11] = cells; conditions: Mus musculus, B16-4A5, 72 h, read-out: INH; remark: listed apart in the source
Description: Inhibition of melanogenesis in theophylline-stimulated mouse B16-4A5 cells at 10 uM after 72 hrs

[12] = cells; conditions: Mus musculus, B16-4A5, 72 h, read-out: INH; remark: listed apart in the source
Description: Inhibition of melanogenesis in theophylline-stimulated mouse B16-4A5 cells at 30 uM after 72 hrs

[13] = cells; conditions: Mus musculus, B16-4A5, 72 h, read-out: INH; remark: listed apart in the source
Description: Inhibition of melanogenesis in theophylline-stimulated mouse B16-4A5 cells at 100 uM after 72 hrs

[14] = system: B16; assay: cells; conditions: Mus musculus, B16, 72 h
Description: Inhibition of melanogenesis in theophylline-stimulated mouse B16-4A5 cells after 72 hrs

[15] = cells; conditions: Mus musculus, B16-4A5, 68 h, read-out: INH
Description: Inhibition of theophylline-stimulated mouse B16-4A5 cell proliferation assessed as cell viability at 1 uM after 68 hrs by WST8 assay

[16] = cells; conditions: Mus musculus, B16-4A5, 68 h, read-out: INH; remark: listed apart in the source
Description: Inhibition of theophylline-stimulated mouse B16-4A5 cell proliferation assessed as cell viability at 3 uM after 68 hrs by WST8 assay

[17] = cells; conditions: Mus musculus, B16-4A5, 68 h, read-out: INH; remark: listed apart in the source
Description: Inhibition of theophylline-stimulated mouse B16-4A5 cell proliferation assessed as cell viability at 10 uM after 68 hrs by WST8 assay

[18] = cells; conditions: Mus musculus, B16-4A5, 68 h, read-out: INH; remark: listed apart in the source
Description: Inhibition of theophylline-stimulated mouse B16-4A5 cell proliferation assessed as cell viability at 30 uM after 68 hrs by WST8 assay

[19] = cells; conditions: Mus musculus, B16-4A5, 68 h, read-out: INH; remark: listed apart in the source
Description: Inhibition of theophylline-stimulated mouse B16-4A5 cell proliferation assessed as cell viability at 100 uM after 68 hrs by WST8 assay

[20] = cells; conditions: Mus musculus, B16-4A5, 68 h
Description: Inhibition of theophylline-stimulated mouse B16-4A5 cell proliferation assessed as cell viability after 68 hrs by WST8 assay

Compound | inhibition [1] [%] | inhibition [2] [%] | Activity [3] | Activity [4] | Activity [5] | Activity [6] | Activity [7] | IC50 [8] [µM] | inhibition at 1 µM [9] [%] | inhibition at 3 µM [10] [%] | inhibition at 10 µM [11] [%] | inhibition at 30 µM [12] [%] | inhibition at 100 µM [13] [%] | IC50 [14] [µM] | inhibition at 1 µM [15] [%] | inhibition at 3 µM [16] [%] | inhibition at 10 µM [17] [%] | inhibition at 30 µM [18] [%] | inhibition at 100 µM [19] [%] | IC50 [20] [µM]
COc1ccc(-c2oc3cc(O)cc(O)c3c(=O)c2O)cc1 [KAEMPFERIDE] | -1.7 | -0.2 | Active | Active | Active | inactive | Active | > 100 | 0 | 5.9 | 39.9 | 81.2 | 78.4 | 16 | -2 | 3.1 | 7.9 | 7.4 | 11.2 | > 100
O=C(CCc1ccccc1)C[C@H](O)CCc1ccccc1 | 3.3 | 2.5 |  |  |  |  |  | > 100 | -3.3 | 6.8 | 10.6 | 33 | 67.8 | 48 | 0 | 0.7 | -4.7 | -7.6 | -7.6 | > 100
O=C1c2c(O)cc(O)cc2O[C@H](c2ccc(O)cc2)[C@H]1O [DIHYDROKAEMPFEROL] | 6 | 4.4 |  |  |  |  |  | > 100 | 8.7 | 1.2 | 12.7 | 20.5 | 56 | 84 | 0.2 | 5.9 | 13.8 | 23.9 | 30.5 | > 100
O=C(O)CCc1ccccc1 [PHENYL PROPIONIC ACID] | 3.8 | 5.3 |  |  |  |  |  | > 100 | 0.1 | 6.3 | 3.8 | 16.9 | 20.9 | > 100 | -1.4 | -2.8 | 1.2 | 1.3 | 2.9 | > 100
O=C1c2c(O)cc(O)cc2O[C@H](c2ccccc2)[C@H]1O [PINOBAKSIN] | 1.8 | 2.8 |  |  |  |  |  | > 100 |  | -5.8 | 10.8 | 16.9 | 47.7 | > 100 | 2.2 | 3.6 | 7 | 7.1 | 6.9 | > 100
O[C@H](CCc1ccccc1)C[C@H](O)CCc1ccccc1 | 2.7 | 4.6 |  |  |  |  |  | > 100 | 10.4 | 11.1 | 7.2 | 48.1 |  | 33 | 1.1 | -0.5 | 1.6 | -2.3 | 90.2 | 60
COc1cc(CC[C@@H](O)CC(=O)CCc2ccccc2)ccc1O | 2.3 | 4.7 |  |  |  |  |  | > 100 | 7.5 | 8.9 | 23.4 | 49.2 | 81.1 | 30 | 5.3 | 11.7 | 11.8 | 15.1 | 20.8 | > 100
O=c1c(O)c(-c2ccc(O)cc2)oc2cc(O)cc(O)c12 [KAEMPFEROL] | 5.7 | 7.6 |  |  |  |  |  | > 100 | 8.3 | 9.9 | 23.4 | 61.1 |  | 20 | 5.6 | 18.1 | 23.5 | 26.1 | 56 | 88
O=c1c(O)c(-c2ccccc2)oc2cc(O)cc(O)c12 [GALANGIN] | 28 | 26.6 | Active | Active | Active | inactive | Active | > 100 | -0.5 | -5.3 | 43.4 | 87.1 |  | 17 | 1.7 | 7.1 | 11.4 | 12.7 | 53.3 | 100
COc1cc(CC/C=C/C(=O)CCc2ccccc2)ccc1O | 3.2 | 3 | Active | Active | Active | inactive | Active | > 100 | 11.6 | 22.5 | 49.3 | 80.1 |  | 10 | 3.2 | 3.8 | 5.1 | 2.6 | 90.6 | 60
COc1cc(CCC(C)=O)ccc1O [ZINGERONE] | 1.4 | 2.1 |  |  |  |  |  | > 100 | 7.6 | 3.7 | 6.1 | 8.3 | 15.5 | > 100 | -0.5 | -2.8 | -8 | -8.8 | -6.1 | > 100
